# Like-named read-outs stand apart in the source and are kept apart here. Where a SMILES comes first, the peptide text is derived from it. Where no end group is shown, it is not given here. [ ]: non-standard residue; d: D form. Phe(4-CF3) = N[C@@H](Cc1ccc(C(F)(F)F)cc1)C(=O)O; Phe(3-Cl) = N[C@@H](Cc1cccc(Cl)c1)C(=O)O; Phe(4-Cl) = N[C@@H](Cc1ccc(Cl)cc1)C(=O)O; Phe(4-F) = N[C@@H](Cc1ccc(F)cc1)C(=O)O; NMeF = CN[C@@H](Cc1ccccc1)C(=O)O; NMeD = CN[C@@H](CC(=O)O)C(=O)O; β3hD = NC(CC(=O)O)CC(=O)O; Aib = CC(C)(N)C(=O)O
# Assays:
# ExoI = target: T1, ExoI (Escherichia coli, UniProt P04995); experiment: biochemical; type: binding, E. coli
# T1 construct: His-tag (cleaved yes); host or cells: E. coli BL21 (DE3) pLysS
# Experimental: (§1) Triplicate measurements were performed using a Clariostar Plus Microplate Reader in 384-well plates for all fluorescence anisotropy (FA) experiments. The settings were 25 °C, excitation at 485 nm, emission at 510 nm, settling time of 0.2 s, and 200 flashes per well.
# (§2) Competition fluorescence anisotropy experiments were carried out as follows: protein (0.5 μM either ExoI or RecO) was incubated with 50 nM F-wtSSB peptide and 0–500 μM unlabeled wtSSB (or a variant) peptide for 30 min at room temperature. For direct fluorescence anisotropy measurements, 16 µM ExoI and 7.5 µM RecO were used in the first well. After serial dilution, either 50 nM of F-mSSB or F-sSSB was added to the wells and then incubated for 30 min. Buffers used included 20 mM Tris-HCl (pH 8.0), 100 mM NaCl, 1 mM MgCl2, 1 mM 2-mercaptoethanol, 10% (v/v) glycerol, for ExoI and 20 mM Tris-HCl (pH 8.0), 200 mM NaCl, 1 mM 2-mercaptoethanol, 10% (v/v) glycerol, and 0.01% Triton-X 100 for RecO [37].
# (§3) Fluorescence anisotropy values were normalized and are shown as bound fractions (BF, %). BF=r−rmin/λ(rmax−r)+r−rmin, I=2∗PG+S, r=S−PG/I, where r: anisotropy, I: total intensity, P: perpendicular intensity, S: parallel intensity, G: an instrument factor set to 1, BF: ligand fraction bound, and λ=λbound/λunbound=1 .
# (§4) Competitive fluorescence anisotropy was analyzed in Origin Pro 9.5, and IC50 values were determined using the Logistic Nonlinear fit function and are shown as plots for each mutated position for each protein in Figures S4 and S6. EC50 values from direct fluorescence anisotropy titrations were plotted in Origin 9.5. Values were determined using the Logistics Nonlinear fit function.
# RecO = target: T2, RecO (Escherichia coli, UniProt P0A7H3); experiment: biochemical; type: binding; details: 0.5 μM RecO, 50 nM F-wtSSB tracer
# T2 construct: His-tag (TEV site) (N, cleaved yes); made in house; host or cells: E. coli Rosetta cells
# T2 sequence (P0A7H3 whole entry): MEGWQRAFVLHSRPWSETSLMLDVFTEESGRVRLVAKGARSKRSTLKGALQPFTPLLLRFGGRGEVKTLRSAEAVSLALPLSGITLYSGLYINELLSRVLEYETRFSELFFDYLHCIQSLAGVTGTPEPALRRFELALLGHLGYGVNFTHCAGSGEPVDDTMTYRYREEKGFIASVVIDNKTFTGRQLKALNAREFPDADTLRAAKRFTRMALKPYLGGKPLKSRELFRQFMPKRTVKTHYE
# Experimental: as §1, §2, §3, §4
# [1] = 0–500 μM unlabeled peptide, 30 min room temperature, 20 mM Tris-HCl pH 8.0, 200 mM NaCl, 10% glycerol, 0.01% Triton-X 100, 25 °C, triplicate, read-out: IC50 on RecO, competitive fluorescence anisotropy
molecule,measurement,setting,value
Ac-DFEDDIPF [Glu3],IC50,ExoI,4.03 ± 0.24 µM
same,IC50,RecO; [1],0.00581 ± 0.00165 mM
CC[C@H](C)[C@H](NC(=O)C[C@H](CC(=O)O)NC(=O)[C@H](CC(=O)O)NC(=O)[C@H](CC(=O)O)NC(=O)[C@H](Cc1ccccc1)NC(=O)[C@H](CC(=O)O)NC(C)=O)C(=O)N1CCC[C@H]1C(=O)N[C@@H](Cc1ccccc1)C(=O)O [β3-Asp5] (Ac-DFDD[β3hD]IPF-OH),IC50,ExoI,13.9 ± 6.11 µM
same,IC50,RecO; [1],0.00591 ± 0.00068 mM
CC[C@H](C)[C@H](NC(=O)[C@H](CC(=O)O)NC(=O)[C@H](CC(=O)O)NC(=O)[C@H](CC(=O)O)NC(=O)[C@H](Cc1ccccc1)NC(=O)[C@H](CC(=O)O)N(C)C(C)=O)C(=O)N1CCC[C@H]1C(=O)N[C@@H](Cc1ccccc1)C(=O)O [NM-Asp1] (Ac-[NMeD]FDDDIPF-OH),IC50,ExoI,2.17 ± 0.15 µM
same,IC50,RecO; [1],0.0051 ± 0.00064 mM
CC[C@H](C)[C@H](NC(=O)[C@H](CC(=O)O)NC(=O)[C@@H](CC(=O)O)NC(=O)[C@H](CC(=O)O)NC(=O)[C@H](Cc1ccccc1)NC(=O)[C@H](CC(=O)O)NC(C)=O)C(=O)N1CCC[C@H]1C(=O)N[C@@H](Cc1ccccc1)C(=O)O [D-Asp4] (Ac-DFD[dD]DIPF-OH),IC50,ExoI,3.08 ± 0.07 µM
same,IC50,RecO; [1],0.00592 ± 0.00091 mM
CC[C@H](C)[C@H](NC(=O)[C@H](CC(=O)O)NC(=O)[C@H](CC(=O)O)NC(=O)[C@H](CC(=O)O)NC(=O)[C@H](Cc1ccccc1)NC(=O)[C@H](CC(=O)O)NC(C)=O)C(=O)N1CCC[C@H]1C(=O)N[C@@H](Cc1ccc(Cl)cc1)C(=O)O [4-Cl-Phe8] (Ac-DFDDDIP[Phe(4-Cl)]-OH),IC50,ExoI,1.41 ± 0.18 µM
same,IC50,RecO; [1],0.00362 ± 0.00084 mM
CC(=O)N[C@@H](CC(=O)O)C(=O)N[C@@H](Cc1ccccc1)C(=O)N[C@@H](CC(=O)O)C(=O)N[C@@H](CC(=O)O)C(N)=O [DFDD] (Ac-DFDD-NH2),IC50,ExoI,312 ± 16.7 µM
same,IC50,"RecO; bound given in mM, read-out: IC50 on RecO, competitive fluorescence anisotropy (no direct inhibitory effect detected)",> 3 mM
CC[C@H](C)[C@H](NC(=O)[C@H](CC(=O)O)NC(=O)[C@H](CC(=O)O)NC(=O)[C@H](CC(=O)O)NC(=O)[C@@H](Cc1ccccc1)NC(=O)[C@H](CC(=O)O)NC(C)=O)C(=O)N1CCC[C@H]1C(=O)N[C@@H](Cc1ccccc1)C(=O)O [D-Phe2] (Ac-D[dF]DDDIPF-OH),IC50,ExoI,3.49 ± 2.41 µM
same,IC50,RecO; [1],0.00275 ± 0.00059 mM
CC[C@H](C)[C@H](NC(=O)[C@H](CC(=O)O)NC(=O)[C@H](CC(=O)O)NC(=O)[C@H](CC(=O)O)NC(=O)[C@H](Cc1cccc(Cl)c1)NC(=O)[C@H](CC(=O)O)NC(C)=O)C(=O)N1CCC[C@H]1C(=O)N[C@@H](Cc1ccccc1)C(=O)O [3-Cl-Phe2] (Ac-D[Phe(3-Cl)]DDDIPF-OH),IC50,ExoI,2.03 ± 0.51 µM
same,IC50,RecO; [1],0.00344 ± 0.00014 mM
Ac-DFDNDIPF [Asn4],IC50,ExoI,6.02 ± 0.3 µM
same,IC50,RecO; [1],0.0157 ± 0.00354 mM
CC(=O)N[C@@H](CC(=O)O)C(=O)N[C@@H](Cc1ccccc1)C(=O)N[C@@H](CC(=O)O)C(=O)N[C@@H](CC(=O)O)C(=O)N[C@@H](CC(=O)O)C(=O)NC(C)(C)C(=O)N1CCC[C@H]1C(=O)N[C@@H](Cc1ccccc1)C(=O)O [Aib6] (Ac-DFDDD[Aib]PF-OH),IC50,ExoI,27.6 ± 7.9 µM
CC(=O)N[C@@H](CC(=O)O)C(=O)N[C@@H](Cc1ccc(Cl)cc1)C(=O)N(C)[C@@H](CC(=O)O)C(=O)N[C@@H](CC(=O)O)C(=O)N[C@@H](CCC(=O)O)C(=O)N[C@@H](CC(C)C)C(=O)N1CCC[C@H]1C(=O)N[C@@H](Cc1cccc(Cl)c1)C(=O)O [R1-sSSB-Ct] (Ac-D[Phe(4-Cl)][NMeD]DELP[Phe(3-Cl)]-OH),IC50,RecO; [1],0.00333 mM
CC[C@H](C)[C@H](NC(=O)[C@H](CC(=O)O)NC(=O)[C@H](CC(=O)O)NC(=O)[C@H](CC(=O)O)NC(=O)[C@H](Cc1ccc(C(F)(F)F)cc1)NC(=O)[C@H](CC(=O)O)NC(C)=O)C(=O)N1CCC[C@H]1C(=O)N[C@@H](Cc1ccccc1)C(=O)O [4-CF3-Phe2] (Ac-D[Phe(4-CF3)]DDDIPF-OH),IC50,RecO; [1],0.00327 ± 0.00042 mM
CC[C@H](C)[C@H](NC(=O)[C@H](CC(=O)O)NC(=O)[C@H](CC(=O)O)NC(=O)[C@H](CC(=O)O)NC(=O)[C@H](Cc1ccc(F)cc1)NC(=O)[C@H](CC(=O)O)NC(C)=O)C(=O)N1CCC[C@H]1C(=O)N[C@@H](Cc1ccccc1)C(=O)O [4-F-Phe2] (Ac-D[Phe(4-F)]DDDIPF-OH),IC50,RecO; [1],0.00305 ± 0.00028 mM
CC[C@H](C)[C@H](NC(=O)[C@H](CC(=O)O)NC(=O)[C@H](CC(=O)O)NC(=O)[C@H](CC(=O)O)NC(=O)[C@H](Cc1ccccc1)NC(=O)[C@H](CC(=O)O)NC(C)=O)C(=O)N1CCC[C@H]1C(=O)N(C)[C@@H](Cc1ccccc1)C(=O)O [NM-Phe8] (Ac-DFDDDIP[NMeF]-OH),IC50,RecO; [1],0.0647 ± 0.0189 mM
